In EP3095872A1, “A METHOD OF PRODUCING ALPHA AMINO ACIDS” (Evonik Degussa GmbH, priority 2015, dated 2016):
Like-named read-outs stand apart in the source and are kept apart here. Marks after values point to notes of the source that are not given here.

Assays:
Assay type in all cases: biochemical
P450Cla [1] = assay: conversion of fatty acid substrates 1a-d with P450Cla, oxidant H2O2; settings: 3 µM P450Cla, 24 h, RT, values marked a based on substrate depletion
Procedure: P450Cla was ordered as synthetic gene and cloned into the pET28a expression vector. […] The dialysis buffer was supplemented with 300 mM NaCl to prevent precipitation of P450Cla. Next, hydroxylation of fatty acid substrates 1a-d (scheme 2) was performed employing purified P450Cla and P450BSß. The oxidant source was varied in case of P450Cla while only H2O2 was used with P450BSß.
Reaction conditions for P450Cla: 3µM P450Cla; Tris-HCl (pH 7.5; 0.1 M); 2.5 to 5 % EtOH (cosolvent for the substrate).
All reactions were performed in closed glass vials for 24 h reaction time at RT with 170 rpm shaking. The reactions were quenched by addition of 100 µl 5 N HCl. Extractions were performed with 500 µl EtOAc containing 0.1 % 1-decanol as internal standard. After drying over Na2SO4, derivatization of acids to corresponding methyl esters was realized by mixing 150 µl of organic phase with 90µl of MeOH prior to supplementation of 20 µl of TMSCHN2 for esterification. Samples were analyzed by GC-FID and GC-MS. Commercial standards of 2-hydroxycaproic acid (2a), 2-hydroxyoctanoic acid (2b) and 2-oxooctanoic acid (4b) were used as references. Calibration curves were obtained from standards 1a-d and 2a-b prepared identically to the reaction mixtures (5 concentration points from 10 µM to 1 mM).

P450Cla [2] = assay: conversion of fatty acid substrate with P450Cla, oxidant O2 + NADPH; settings: 10 mM substrate, without CamAB
Procedure: (§1) P450BSß was expressed and purified as described in Matsunaga et al. 2001. P450Cla was ordered as synthetic gene and cloned into the pET28a expression vector. Efficient expression of P450Cla was obtained by applying the expression protocol (TBmedia, 20 h, 30 °C) as described in Nazor et al. (2008) under heading 'shake flask expression of P450 BM3'. Purification was performed according to the published protocol (Girhard M., et al, 2007) with minor alterations as (unreported) precipitation of P450Cla during dialysis occured. The dialysis buffer was supplemented with 300 mM NaCl to prevent precipitation of P450Cla. Next, hydroxylation of fatty acid substrates 1a-d (scheme 2) was performed employing purified P450Cla and P450BSß. The oxidant source was varied in case of P450Cla while only H2O2 was used with P450BSß. Table 2: Conversion of fatty acid substrates 1a-d with P450Cla and CYPBSß
(§2) All reactions were performed in closed glass vials for 24 h reaction time at RT with 170 rpm shaking. The reactions were quenched by addition of 100 µl 5 N HCl. Extractions were performed with 500 µl EtOAc containing 0.1 % 1-decanol as internal standard. After drying over Na2SO4, derivatization of acids to corresponding methyl esters was realized by mixing 150 µl of organic phase with 90µl of MeOH prior to supplementation of 20 µl of TMSCHN2 for esterification. Samples were analyzed by GC-FID and GC-MS. […]

P450Cla+CamAB = assay: conversion of fatty acid substrate with P450Cla+CamAB, oxidant O2 + NADPH; settings: 10 mM substrate, % of the product area of the reaction with H2O2 and 10 mM 1d
Procedure: as §1, §2

HICDH-proteins = assay: spectrophotometric monitoring (340 nm) and GC-FID of HICDH oxidation and reduction
P450Cla [3] = assay: preparative scale conversion of decanoic acid with P450Cla; settings: 20 mM decanoic acid; 4 µM P450Cla; 32 mM H2O2 in total; 24 h
Procedure: Synthesis of 2-hydroxydecanoic acid was done in 10 ml Tris-HCl (pH 7.5; 0.1 M) employing 4µM P450Cla, 20 mM decanoic acid (38.8 mg of the sodium salt) and 2.5 % EtOH (RT, 170 rpm shaking). Hydrogen peroxide (1.6 mM) was added every 30 min (20 times; in total 32 mM) to the reaction mixture. After 24 h reaction time, 1 ml 5 N HCl was added to stop the reaction. Product extraction was repeated five times using 5 ml EtOAc prior to purification by silica chromatography column using EtOAc/petroleum ether/acetic acid as mobile phase (80:20:1.2). Fractions containing the desired product were combined and concentrated by evaporation under reduced pressure. With the present set up, 16 mg of 2-hydroxydecanoic acid (46 % isolated yield, TTNP450 ∼ 3040) was isolated which was confirmed by GC-MS, 1 H- and 13C-NMR (Figure 1).

P450Cla [4] = assay: alpha-hydroxylation of selected fatty acids, catalytic and kinetic characterization of P450Cla; settings: for Product: 10 mM fatty acid, 0.5 µM P450Cla (C10), 1 µM (C8, C6), Tris-HCl pH 7.5, RT, triplicate; for specific activity U mg^-1: P450Cla 48 kDa, values only relevant at initial rate; for Coupling*: mol product per mol H2O2
Procedure: Hydroxylation of selected fatty acids was carried out using a fresh preparation of purified P450Cla. P450Cla was characterised for key catalytic parameters specific activities were determined for three selected substrates as shown in Table 1. Table 1: Catalytic and kinetic characterization of P450Cla for conversion of 10 mM of selected fatty acids. All reactions were performed in triplicate.
Conditions: 0.5 µM P450Cla used in reactions with C10; 1 µM P450Cla used in reactions with C8 and C6; All reactions were performed in Tris-HCl (pH 7.5, 0.1 M) at RT and 170 rpm shaking in closed glass vials; *molProduct^-1 molH2O2^-1; ^§molecular weight of P450Cla is 48 kDa, values only relevant at initial rate.

For CCCCCCCCCCCC(=O)O [Substrate 1d, dodecanoic acid], the Conversion (P450Cla [1]; 5 mM substrate, H2O2 9.6 mM total) was >99^a %, the Conversion (P450Cla [1]; 10 mM substrate, H2O2 19.2 mM total) was >99^a % and the Conversion (P450Cla [2]) was 0%. For the same compound, the Conversion (P450Cla+CamAB) was 5^b %.

In the case of CCCCCCC(=O)C(=O)O [Substrate 4b, 2-oxooctanoic acid], the “Reduction to 2-hydroxy octanoic acid 2b (GC-FID)” value (HICDH-proteins) is reported as “confirmed”.

With CCCCCCCCCC(=O)O [Substrate C10, decanoic acid] the TTNP450 (P450Cla [3]) was ~3040, the “Selectivity [% α-OH]” value (P450Cla [4]) was > 90% and the specific activity (P450Cla [4]) was ≥ 1 U mg^-1. For the same compound, the Product (P450Cla [4]; 5 min, H2O2 0.8 mM) was 0.67 ± 0.04 mM, the Product (P450Cla [4]; 15 min, H2O2 0.8 mM) was 0.6 ± 0.02 mM and the Product (P450Cla [4]; 30 min, H2O2 1.6 mM) was 1.2 ± 0.06 mM. For the same compound, the “Selectivity [% α-OH]” value (P450Cla [4]; 5 min, H2O2 0.8 mM) was >95%, the TON (P450Cla [4]; 5 min, H2O2 0.8 mM) was 266 min⁻¹ and the TTN (P450Cla [4]; 5 min, H2O2 0.8 mM) was 1330. The “specific activity U mg^-1” value (P450Cla [4]; 5 min, H2O2 0.8 mM) was 5.5 U mg^-1, the “Coupling*” value (P450Cla [4]; 5 min, H2O2 0.8 mM) was 83% and the “Selectivity [% α-OH]” value (P450Cla [4]; 15 min, H2O2 0.8 mM) was >95%. The TON (P450Cla [4]; 15 min, H2O2 0.8 mM) was 80 min⁻¹, the TTN (P450Cla [4]; 15 min, H2O2 0.8 mM) was 1207 and the “specific activity U mg^-1” value (P450Cla [4]; 15 min, H2O2 0.8 mM) was 1.7 U mg^-1. The “Coupling*” value (P450Cla [4]; 15 min, H2O2 0.8 mM) was 75%, the “Selectivity [% α-OH]” value (P450Cla [4]; 30 min, H2O2 1.6 mM) was >95% and the TON (P450Cla [4]; 30 min, H2O2 1.6 mM) was 80 min⁻¹. The TTN (P450Cla [4]; 30 min, H2O2 1.6 mM) was 2406, the “specific activity U mg^-1” value (P450Cla [4]; 30 min, H2O2 1.6 mM) was 1.7 U mg^-1 and the “Coupling*” value (P450Cla [4]; 30 min, H2O2 1.6 mM) was 75%.
